Assay results as given in US20030082226A1, “Non-steroidal antiinflammatory drug formulations for topical application to the skin” (priority 1997, published 2003).

Experiment: Delivery of various NSAIDs through human skin, effect of propylene glycol, static cells (Example 8)
Assay type: in vitro ADME
Conditions: 10% enhancer; for Avg 24 Hour % Dose: ethanol:water 70:30, pH about 7, human skin; for effect of propylene glycol on total delivery (percent of original dose) at twenty four hours: 0 to 20% PG
Excerpt: All the tested formulations included ethanol and water at a 70:30 weight ratio and were neutralized with base to a pH of about 7.

| Avg 24 Hour % Dose (0% PG) [%] | Avg 24 Hour % Dose (5% PG) [%] | Avg 24 Hour % Dose (10% PG) [%] | Avg 24 Hour % Dose (15% PG) [%] | Avg 24 Hour % Dose (20% PG) [%] | effect of propylene glycol on total delivery (percent of original dose) at twenty four hours | SMILES |
| --- | --- | --- | --- | --- | --- | --- |
| 61.7 | 57.9 | 56.5 | 50.1 | 28.3 |  | CC(C)Cc1ccc(C(C)C(=O)O)cc1 (stereo not shown) [Ibuprofen] |
| 18.7 | 29.7 | 35.3 |  | 45.2 |  | O=C(O)Cc1ccccc1Nc1c(Cl)cccc1Cl [Diclofenac] |
| 9.1 | 10.3 | 12.0 |  | 27.0 |  | CC(C(=O)O)c1cccc(C(=O)c2ccccc2)c1 (stereo not shown) [Ketoprofen] |
| 10.8 | 27.1 | 25.0 |  | 19.3 | intermediate | O=C(c1ccccc1)c1ccc2n1CCC2C(=O)O (stereo not shown) [Ketorolac] |
| 66.3 |  | 55.1 |  | 63.5 | substantially neutral | CN1C(C(=O)Nc2ccccn2)=C(O)c2ccccc2S1(=O)=O [Piroxicam] |
